Several values for one entry are separate records, joined by “and”; a condition that tells them apart may be missing. Identical values can stand only once. Like-named read-outs stand apart in the source and are kept apart here.
Assays:
[1] = system: L1210 murine leukaemia cells; assay: in vitro cytotoxicity assay (colony formation, L1210 cells, NU1064 with or without temozolomide); type: cell-based; details: for relative plating efficiency, NU1064 with temozolomide: 24 hours, normalised to temozolomide alone = 100%
Method: Again using cultures of the murine leukaemia L1210 cell line, growth inhibition experiments were carried out to assess the cytostatic effects of the compounds and clonogenic survival assays were performed to assess cytotoxicity, especially in relation to use of the compounds in conjunction with DNA damaging cytotoxic agents such as cytotoxic antitumour drugs or gamma irradiation. […] After 1 week colonies of viable cells were stained with MTT (1 ml 0.5 mg/ml) and counted.

PARP = molecular target: T1, PARP (Mus musculus, UniProt P11103); assay: PARP enzyme inhibition assay ([32P]-NAD+ incorporation into TCA-precipitated poly(ADP-ribose), oligonucleotide-activated, permeabilised L1210 cells); type: biochemical, murine (L1210 leukaemia cells); details: for IC50: permeabilised L1210 cells, 26° C., 5 minutes
T1 construct: endogenous in cells; host or cells: L1210 murine leukaemia cells, permeabilised by hypotonic buffer and cold shock
T1 sequence (P11103 whole entry): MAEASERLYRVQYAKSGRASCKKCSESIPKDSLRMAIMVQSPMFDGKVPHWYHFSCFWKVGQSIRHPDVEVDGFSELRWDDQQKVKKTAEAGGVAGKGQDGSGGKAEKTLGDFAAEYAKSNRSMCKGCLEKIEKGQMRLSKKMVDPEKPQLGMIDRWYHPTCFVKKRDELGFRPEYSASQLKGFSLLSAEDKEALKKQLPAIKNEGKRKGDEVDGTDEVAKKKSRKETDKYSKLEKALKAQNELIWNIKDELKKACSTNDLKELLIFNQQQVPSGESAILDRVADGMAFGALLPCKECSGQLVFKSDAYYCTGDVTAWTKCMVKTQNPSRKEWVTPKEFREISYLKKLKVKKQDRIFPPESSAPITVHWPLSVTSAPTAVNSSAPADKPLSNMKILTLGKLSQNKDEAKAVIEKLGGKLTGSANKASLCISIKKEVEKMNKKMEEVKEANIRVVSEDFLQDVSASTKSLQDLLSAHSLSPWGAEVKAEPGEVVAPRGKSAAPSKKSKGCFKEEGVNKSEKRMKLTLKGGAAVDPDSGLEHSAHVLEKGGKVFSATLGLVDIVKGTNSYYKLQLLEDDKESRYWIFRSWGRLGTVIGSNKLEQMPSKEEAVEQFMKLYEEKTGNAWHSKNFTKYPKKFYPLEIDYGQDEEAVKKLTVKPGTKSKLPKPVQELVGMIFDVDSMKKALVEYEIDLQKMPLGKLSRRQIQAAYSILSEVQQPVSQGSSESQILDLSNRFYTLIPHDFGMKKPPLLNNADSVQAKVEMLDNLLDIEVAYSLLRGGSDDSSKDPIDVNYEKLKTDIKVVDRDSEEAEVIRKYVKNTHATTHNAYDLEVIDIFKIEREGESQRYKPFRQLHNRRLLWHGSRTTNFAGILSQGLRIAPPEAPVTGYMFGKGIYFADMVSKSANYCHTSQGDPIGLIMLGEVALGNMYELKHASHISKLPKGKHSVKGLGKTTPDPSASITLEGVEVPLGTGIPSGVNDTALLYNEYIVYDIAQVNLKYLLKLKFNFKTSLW
Source text: The poly(ADP-ribose) which is then synthesised by the enzyme can be precipitated by tri-chloracetic acid (TCA) and the amount of radio-labelled ^32 p incorporated therein measured, e.g. using a scintillation counter, to give a measure of the activity of the PARP under the particular conditions of the experiment. By repeating the experiment following the same procedure, and under the same conditions, in the presence of each compound to be tested the reduction in enzyme activity, representative of the inhibitory effect of the test compound, can then be ascertained from the reduction, if any, of the amount of [^32 p] measured in the TCA precipitated poly(ADP-ribose).
Thus, with a range of different compounds a set of comparative values for inhibitory activity can be obtained.
In practice, L1210 murine leukaemia cells have been used as a source of the PARP enzyme after being rendered permeable to exogenous [^32 P]NAD by exposure to hypotonic buffer and cold shock. […] This oligonucleotide sequence snaps back on itself to form a double-stranded molecule with a single blunt end and provides an effective substrate for activation of PARP.
The experimental protocol adopted, in which a synthetic oligonucleotide as mentioned above is introduced as a specific activator of PARP, discriminates between PARP and other mono-ADP-ribosyltransferases in the cells.
The oligonucleotide having the palindromic sequence […], synthesised by conventional means, was vacuum dried and stored as pellets in a freezer. Before use, it was made up to 200 μg/ml in 10 mM Tris/HCl, pH 7.8, with each pellet being dissolved completely in […] of buffer. The solution was then heated to 60° C. in a water bath for 15 minutes, and allowed to cool slowly to ensure correct reannealing. After adding 9.5 ml of buffer, the concentration was checked by measuring the optical density of a diluted sample at 260 nm. The main solution was then diluted to a concentration of 200 μg/ml and stored in 500 μl aliquots in a freezer, ready for use.
The L1210 cells used as the source of the PARP enzyme were maintained as a suspension culture in RPMI medium+10% foetal bovine serum+glutamine and antibiotics (penicillin and streptomycin). HEPES and sodium bicarbonate were also added, and the cells were seeded in 100 ml-200 ml of medium such that there would be a concentration of approximately 8×10^5 /ml at the time of carrying out an assay.
The solubility of the compound was then checked by adding a quantity of the DMSO solution to a quantity of the isotonic buffer, in the required final proportions that were to be used in carrying out the assay, and after an interval the solution was examined under a microscope for any signs of crystals forming.
A desired quantity of the cells, ascertained by counting with a haemocytometer, was then centrifuged (1500 rpm in a "Europa" model 24M centrifuge for 5 minutes), the supernatant removed, and the pellets obtained were resuspended in 20 ml Ca^++ Mg^++ free phosphate buffered saline (Dulbeco's modification A, abbreviated Dul A) at 4° C. before centrifuging again at 1500 rpm and 4° C. After again removing the supernatant, the cells were resuspended at a concentration of 3×10^7 cells/ml in ice cold hypotonic buffer and left for 30 minutes on ice. Nine volumes were then added of ice cold isotonic buffer, and the cells, now rendered permeable to exogenous NAD^+, were then used within the next hour for carrying out an assay. The permeablisation of the cells may be checked at this stage by adding duplicate aliquots of cells to an equal volume of trypan blue, leaving for 5 minutes and then counting on a haemocytometer. Those rendered permeable will take up the Trypan blue and appear coloured.

[2] = read-out: IC50 value (PARP inhibition)

Molecule | IC50 (PARP; [2]) | further results
Cn1nnc2c(C(N)=O)ncn2c1=O [temozolomide, reference compound] | – | plating efficiency ([1]; 100 μM temozolomide alone, 24 hours (control 89%)): 32%
NC(=O)c1cccc2nc(-c3ccc(O)cc3)[nH]c12 [NU1085, 2-(4'-Hydroxyphenyl)-1-H-benzimidazole-4-carboxamide] | – | IC50 (PARP; IC50 value (PARP inhibition)): 0.077 µM
NC(=O)c1cccc2[nH]c(C(F)(F)F)nc12 [NU1086, 2-trifluoromethylbenzimidazole-4-carboxamide] | 1.6 µM | –
N#Cc1ccc(-c2nc3c(C(N)=O)cccc3[nH]2)cc1 [NU1092, 2-(4'-Cyanophenyl)-1-H-benzimidazole-4-carboxamide] | 0.033 µM | PARP inhibitory activity (in words) (PARP): exceptionally high inhibitory activities
NC(=O)c1cccc2[nH]c(-c3cccc(C(F)(F)F)c3)nc12 [NU1093, 2-(3'-Trifluoromethylphenyl)-1-H-benzimidazole-4-carboxamide] | 0.076 µM | –
COc1ccc(-c2nc3c(C(N)=O)cccc3n2C(=O)c2ccccc2)cc1 [NU1101, 2-(4'-Methoxyphenyl)-1-benzoylbenzimidazole-4-carboxamide] | 0.27 µM | –
NC(=O)c1cccc2[nH]c(-c3ccc([N+](=O)[O-])cc3)nc12 [NU1091, 2-(4'-Nitrophenyl)-1-H-benzimidazole-4-carboxamide] | 0.022 µM | PARP inhibitory activity (in words) (PARP): exceptionally high inhibitory activities
COc1ccc(-c2nc3c(C(N)=O)cccc3n2C)cc1 [NU1090, 2-(4'-Methoxyphenyl)-1-methylbenzimidazole-4-carboxamide] | ~0.1 µM | –
NC(=O)c1ccccc1 [benzamide, reference compound] | 12.4 ± 3.1 µM | –
NC(=O)c1cccc2nc(-c3ccc(N)cc3)[nH]c12 [NU1103, 2-(4'-aminophenyl)benzimidazole-4-carboxamide] | 0.091 µM | –
NC(=O)c1cccc2[nH]cnc12 [NU1066, benzimidazole-4-carboxamide] | – | IC50 (PARP; IC50 value (PARP inhibition)): 1.26 µM and 1.02 µM
Cc1nc2c(C(N)=O)cccc2[nH]1 [NU1064, 2-methylbenzimidazole-4-carboxamide] | 1.09 ± 0.23 µM | relative plating efficiency, NU1064 with temozolomide ([1]; 100 μM NU1064 + 100 μM temozolomide): 28%; relative plating efficiency, NU1064 with temozolomide ([1]; 200 μM NU1064 + 100 μM temozolomide): 2%; viability at 100 µM ([1]; Mus musculus, L1210, 100 μM NU1064, 24 hours, normalised to control = 100%, read-out: relative plating efficiency, NU1064 alone): 72%; viability at 200 µM ([1]; Mus musculus, L1210, 200 μM NU1064, 24 hours, normalised to control = 100%, read-out: relative plating efficiency, NU1064 alone): 54%; potentiation of temozolomide cytotoxicity (in words) ([1]; increasing concentrations of NU1064 + 100 μM temozolomide): very marked increase in temozolomide cytotoxicity
O=C(O)c1cccc2nc[nH]c12 [NU1067, benzimidazole-4-carboxylic acid] | – | % Inhibition at 10 μM or IC50 value (result in words) (PARP; result in words in table): Inactive
CGGAATTCCG: single strand oligonucleotide having the palindromic sequence CGGAATTCCG, activator of PARP (chemistry not given here) [reference compound] | – | activation of PARP by oligonucleotide (in words) (PARP): potent activator of the enzyme
COc1cccc(-c2nc3c(C(N)=O)cccc3[nH]2)c1 [NU1098, 2-(3'-Methoxyphenyl)-1-H-benzimidazole-4-carboxamide] | 0.13 µM | –
COc1ccc(-c2nc3c(C(N)=O)cccc3[nH]2)cc1 [NU1076, 2-(4'-methoxyphenyl)benzimidazole-4-carboxamide] | 0.059 µM | –
NC(=O)c1cccc(O)c1 [3-hydroxybenzamide, reference compound] | 8 ± 3.5 µM | –
